From patent US20190330275A1 (priority 2016, published 2019)
Peptide text beside a SMILES is read from it.

Tests used:
rat α6/α3β4 nAChR = rat α6/α3β4 nAChR (Rattus norvegicus, UniProt P04757+P12392+P43143); experiment: cell-based; conditions: for IC50: α6/α3β4 IC50 (half-blocking dose)
rat α3β4 nAChR = rat α3β4 nAChR (Rattus norvegicus, UniProt P04757+P12392); experiment: cell-based; conditions: for IC50: α3β4 IC50 (half-blocking dose)
Sequence of rat α3β4 nAChR (P04757 26-499 limits assumed): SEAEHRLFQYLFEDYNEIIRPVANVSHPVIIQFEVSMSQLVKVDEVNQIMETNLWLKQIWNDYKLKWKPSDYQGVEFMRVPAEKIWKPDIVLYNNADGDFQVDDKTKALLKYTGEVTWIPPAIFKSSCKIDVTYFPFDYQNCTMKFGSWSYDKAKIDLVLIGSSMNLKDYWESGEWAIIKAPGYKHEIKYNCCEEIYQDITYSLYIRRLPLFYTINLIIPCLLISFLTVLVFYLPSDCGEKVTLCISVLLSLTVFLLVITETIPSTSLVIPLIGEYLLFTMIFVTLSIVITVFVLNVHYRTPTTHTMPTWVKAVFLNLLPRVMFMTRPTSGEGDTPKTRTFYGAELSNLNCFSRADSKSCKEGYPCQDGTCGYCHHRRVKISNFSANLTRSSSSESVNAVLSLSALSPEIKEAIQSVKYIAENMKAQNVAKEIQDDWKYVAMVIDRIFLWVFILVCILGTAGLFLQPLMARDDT
Sequence of rat α3β4 nAChR (P12392 21-495 limits assumed): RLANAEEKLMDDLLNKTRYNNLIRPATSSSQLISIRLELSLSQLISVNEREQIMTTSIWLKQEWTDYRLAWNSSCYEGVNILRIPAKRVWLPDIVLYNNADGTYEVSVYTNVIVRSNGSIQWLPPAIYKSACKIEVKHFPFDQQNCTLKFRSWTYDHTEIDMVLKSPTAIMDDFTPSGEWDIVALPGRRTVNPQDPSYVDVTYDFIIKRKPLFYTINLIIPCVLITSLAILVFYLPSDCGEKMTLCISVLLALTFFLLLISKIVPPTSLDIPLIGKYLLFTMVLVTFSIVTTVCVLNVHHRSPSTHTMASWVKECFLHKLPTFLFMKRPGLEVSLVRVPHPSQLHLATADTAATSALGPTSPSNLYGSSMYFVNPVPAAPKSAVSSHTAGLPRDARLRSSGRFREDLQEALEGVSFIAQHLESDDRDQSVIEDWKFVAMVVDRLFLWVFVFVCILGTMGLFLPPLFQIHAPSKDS

Sequence of rat α6/α3β4 nAChR (P04757 whole entry, looked up): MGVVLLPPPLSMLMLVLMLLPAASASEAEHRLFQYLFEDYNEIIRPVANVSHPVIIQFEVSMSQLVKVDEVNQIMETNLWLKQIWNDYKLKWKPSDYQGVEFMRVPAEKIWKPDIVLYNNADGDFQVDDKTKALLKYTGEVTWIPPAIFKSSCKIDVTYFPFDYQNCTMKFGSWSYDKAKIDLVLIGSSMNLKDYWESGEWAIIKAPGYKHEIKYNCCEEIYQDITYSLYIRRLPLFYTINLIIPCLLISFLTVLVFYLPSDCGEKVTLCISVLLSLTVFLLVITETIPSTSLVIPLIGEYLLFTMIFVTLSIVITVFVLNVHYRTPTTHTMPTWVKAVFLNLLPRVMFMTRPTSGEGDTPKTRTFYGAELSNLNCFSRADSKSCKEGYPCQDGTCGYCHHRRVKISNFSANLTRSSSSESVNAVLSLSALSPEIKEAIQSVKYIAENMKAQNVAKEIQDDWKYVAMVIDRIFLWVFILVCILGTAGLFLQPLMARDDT
Sequence of rat α6/α3β4 nAChR (P12392 whole entry, looked up): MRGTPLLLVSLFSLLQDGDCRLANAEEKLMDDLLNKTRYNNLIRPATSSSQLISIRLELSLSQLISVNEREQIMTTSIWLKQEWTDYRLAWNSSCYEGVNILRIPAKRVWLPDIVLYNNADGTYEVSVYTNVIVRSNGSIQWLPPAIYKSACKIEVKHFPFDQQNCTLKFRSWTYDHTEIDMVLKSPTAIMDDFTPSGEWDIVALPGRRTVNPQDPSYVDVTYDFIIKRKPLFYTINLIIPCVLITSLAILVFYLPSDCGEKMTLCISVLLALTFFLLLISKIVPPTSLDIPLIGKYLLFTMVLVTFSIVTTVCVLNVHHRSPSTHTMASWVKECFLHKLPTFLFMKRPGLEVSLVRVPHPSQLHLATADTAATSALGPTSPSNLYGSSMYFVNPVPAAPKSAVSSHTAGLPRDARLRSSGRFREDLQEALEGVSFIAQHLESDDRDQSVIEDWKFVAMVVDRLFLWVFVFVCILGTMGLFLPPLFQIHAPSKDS
Sequence of rat α6/α3β4 nAChR (P43143 whole entry, looked up): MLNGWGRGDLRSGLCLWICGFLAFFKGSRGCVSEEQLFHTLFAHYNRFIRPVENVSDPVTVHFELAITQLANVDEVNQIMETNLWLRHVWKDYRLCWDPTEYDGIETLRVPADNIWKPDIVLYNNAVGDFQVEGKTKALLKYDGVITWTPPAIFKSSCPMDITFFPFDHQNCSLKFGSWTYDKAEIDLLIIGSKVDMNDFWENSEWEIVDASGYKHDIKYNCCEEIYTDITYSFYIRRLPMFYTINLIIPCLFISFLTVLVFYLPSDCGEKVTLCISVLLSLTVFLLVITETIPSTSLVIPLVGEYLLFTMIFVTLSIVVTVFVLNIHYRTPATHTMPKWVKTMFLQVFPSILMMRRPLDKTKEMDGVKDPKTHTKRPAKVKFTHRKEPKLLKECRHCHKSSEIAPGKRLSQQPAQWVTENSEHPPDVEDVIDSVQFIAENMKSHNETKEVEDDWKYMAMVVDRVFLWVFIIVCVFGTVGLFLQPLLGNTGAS

In the case of `CSCC[C@@H]1NC(=O)[C@H](C)NC(=O)[C@H](CO)NC(=O)[C@@H]2CSSC[C@H](NC(=O)CN)C(=O)N[C@@H](CSSC[C@@H](C(N)=O)NC(=O)[C@H](C)NC(=O)[C@@H]3CCCN3C(=O)[C@H](CO)NC1=O)C(=O)N[C@@H](CO)C(=O)N[C@@H](Cc1c[nH]cn1)C(=O)N1CCC[C@H]1C(=O)N[C@@H](C(C)C)C(=O)N2` [TxID[I14A]] (HELM PEPTIDE1{G.C.C.S.H.P.V.C.S.A.M.S.P.A.C.[am]}$PEPTIDE1,PEPTIDE1,2:R3-8:R3|PEPTIDE1,PEPTIDE1,3:R3-15:R3$$$V2.0), the “IC50 ratio of α6/α3β4 vs. α3β4 (Discrimination)” value (rat α6/α3β4 nAChR) is reported as 2.8, the “α6/α3β4 IC50 ratio” value (rat α6/α3β4 nAChR) is reported as 1.3 and the IC50 (rat α6/α3β4 nAChR) is reported as 0.0458 µM. The “α3β4 IC50 ratio” value (rat α3β4 nAChR) was 4.4 and the IC50 (rat α3β4 nAChR) was 0.0161 µM.
`CC[C@H](C)[C@@H]1NC(=O)[C@@H]2CCCN2C(=O)[C@H](CO)NC(=O)[C@H](CCSC)NC(=O)[C@H](C)NC(=O)[C@H](CO)NC(=O)[C@@H]2CSSC[C@H](NC(=O)CN)C(=O)N[C@@H](CSSC[C@@H](C(N)=O)NC1=O)C(=O)N[C@@H](CO)C(=O)N[C@@H](Cc1c[nH]cn1)C(=O)N[C@@H](C)C(=O)N[C@@H](C(C)C)C(=O)N2` [TxID[P6A]] (HELM PEPTIDE1{G.C.C.S.H.A.V.C.S.A.M.S.P.I.C.[am]}$PEPTIDE1,PEPTIDE1,2:R3-8:R3|PEPTIDE1,PEPTIDE1,3:R3-15:R3$$$V2.0) gave an IC50 (rat α6/α3β4 nAChR) greater than 10 µM and an IC50 (rat α3β4 nAChR) greater than 10 µM.
`CC[C@H](C)[C@@H]1NC(=O)[C@@H]2CCCN2C(=O)[C@H](CO)NC(=O)[C@H](CCSC)NC(=O)[C@H](C)NC(=O)[C@H](C)NC(=O)[C@@H]2CSSC[C@H](NC(=O)CN)C(=O)N[C@@H](CSSC[C@@H](C(N)=O)NC1=O)C(=O)N[C@@H](CO)C(=O)N[C@@H](Cc1c[nH]c3ccccc13)C(=O)N1CCC[C@H]1C(=O)N[C@@H](C(C)C)C(=O)N2` [TxID[H5W, S9A]] (HELM PEPTIDE1{G.C.C.S.W.P.V.C.A.A.M.S.P.I.C.[am]}$PEPTIDE1,PEPTIDE1,2:R3-8:R3|PEPTIDE1,PEPTIDE1,3:R3-15:R3$$$V2.0) showed an IC50 (rat α6/α3β4 nAChR) greater than 10 µM and an IC50 (rat α3β4 nAChR) greater than 10 µM.
Molecule `CC[C@H](C)[C@@H]1NC(=O)[C@@H]2CCCN2C(=O)[C@H](CO)NC(=O)[C@H](CCSC)NC(=O)[C@H](C)NC(=O)[C@H](CO)NC(=O)[C@@H]2CSSC[C@H](NC(=O)CN)C(=O)N[C@@H](CSSC[C@@H](C(N)=O)NC1=O)C(=O)N[C@@H](CO)C(=O)N[C@@H](Cc1c[nH]cn1)C(=O)N1CCC[C@H]1C(=O)N[C@@H](C)C(=O)N2` [TxID[V7A]] (HELM PEPTIDE1{G.C.C.S.H.P.A.C.S.A.M.S.P.I.C.[am]}$PEPTIDE1,PEPTIDE1,2:R3-8:R3|PEPTIDE1,PEPTIDE1,3:R3-15:R3$$$V2.0) has an IC50 (rat α6/α3β4 nAChR) greater than 10 µM and an IC50 (rat α3β4 nAChR) greater than 10 µM.
For `CC[C@H](C)[C@@H]1NC(=O)[C@@H]2CCCN2C(=O)[C@H](CO)NC(=O)[C@H](CCSC)NC(=O)[C@H](C)NC(=O)[C@H](Cc2ccccc2)NC(=O)[C@@H]2CSSC[C@H](NC(=O)CN)C(=O)N[C@@H](CSSC[C@@H](C(N)=O)NC1=O)C(=O)N[C@@H](CO)C(=O)N[C@@H](Cc1c[nH]cn1)C(=O)N1CCC[C@H]1C(=O)N[C@@H](C(C)C)C(=O)N2` [TxID[S9F]] (HELM PEPTIDE1{G.C.C.S.H.P.V.C.F.A.M.S.P.I.C.[am]}$PEPTIDE1,PEPTIDE1,2:R3-8:R3|PEPTIDE1,PEPTIDE1,3:R3-15:R3$$$V2.0), the “IC50 ratio of α6/α3β4 vs. α3β4 (Discrimination)” value (rat α6/α3β4 nAChR) was 0.5, the “binding (blocking) activity to α6/α3β4 nAChR compared with wild type TxID” value (rat α6/α3β4 nAChR) was “not significantly different from the activity of the wild type TxID” and the “elution rate after blocking α6/α3β4 nAChR current” value (rat α6/α3β4 nAChR) was “significantly slower than those of other polypeptides”. The “α6/α3β4 IC50 ratio” value (rat α6/α3β4 nAChR) was 0.2, the “binding (blocking) activity to α3β4 nAChR compared with wild type TxID” value (rat α3β4 nAChR) was “not significantly different from the activity of the wild type TxID” and the “elution after blocking the α3β4 nAChR current” value (rat α3β4 nAChR) was “very slow”. The “α3β4 IC50 ratio” value (rat α3β4 nAChR) was 3.8.
